According to US9944606B2, “Cannabinoid receptor modulators” (Arena Pharmaceuticals, Inc., priority 2009, dated 2018):

Assays:
[1] = system: MIA model of osteoarthritis; test: MIA model of osteoarthritis pain (von Frey, weight distribution, grip strength); type: in vivo, Sprague Dawley rats; details: MIA rats, 3, 10 and 30 mg/kg orally, one hour after dosing, FIG. 2
Excerpt: Injection of monosodium iodoacetate (MIA) into a joint (Kalbhen, 1987) inhibits the activity of glyceraldehyde-3-phosphate dehydrogenase in chondrocytes, resulting in disruption of glycolysis and eventually in cell death. The progressive loss of chondrocytes results in histological and morphological changes of the articular cartilage, closely resembling those seen in osteoarthritis patients.
The osteoarthritis was induced in 200 g male Sprague Dawley rats. […]
Typically during disease progression, there was an inflammation period of 0-7 days post-intra-articular injection followed by progressive degeneration of the cartilage and subchondral bone from days 14-55. […] Tactile allodynia was measured via von Frey assay, hind limb paw weight distribution was monitored using an incapacitence tester (Columbus Instruments, Columbus, Ohio, USA) and hind limb grip strength was measured using a grip strength meter (Columbus Instruments, Columbus, Ohio, USA). […] Hind paw weight distribution was determined by placing rats in a chamber so that each hind paw rests on a separate force plate of the incapacitence tester. The force exerted by each hind limb (measured in grams) is averaged over a 3 second period. Three measurements were taken for each rat, and the change in hind paw weight distribution calculated. […]

[2] = system: FCA-induced hyperalgesia model of inflammatory pain; test: FCA-induced hyperalgesia in rats; type: in vivo, Sprague Dawley rats; details: FCA rats, 0.1, 1, 3, 10 and 30 mg/kg orally, 1 h post dosing, Analgesy-Meter, FIG. 1
Protocol: Animal Info: Male Sprague Dawley rats from Harlan (200-225 g when received) were used. Upon arrival, rats were housed 4 per cage in shoe-box polycarbonate cages with wire tops, wood chip bedding and suspended food and water bottles Animals were acclimated for 5-7 days prior to being injected with Freund's complete adjuvant (FCA) (Sigma; catalog #5881).
Experimental procedure: 2 days (48 h) before testing compounds, baseline readings of all rats were taken right before FCA injection. Rats were then injected with 50 μL FCA containing 1 mg/mL Mtb (Mycobacterium tuberculosis) in right hind footpad under inhalation anesthesia (isoflurane). 48 hours after FCA injection, readings were taken as pre-dosing baseline and then rats were dosed orally with 0.5 mL of vehicle or compound (0.5 mL per 250 g rat). Readings were taken again at 1 h post dosing. All readings were taken with an Analgesy-Meter (Ugo Basile) which measures mechanical hyperalgesia via paw pressure.
Clinical scoring: FCA-induced hyperalgesia was tested with an Analgesy-Meter. Briefly, the Analgesy Meter applied an increasing pressure to the right hind paw. The paw withdrawal threshold was the pressure leading to withdrawal.
Meanwhile a group of rats were dosed orally with 50 mg/kg of Diclofenac as a positive control. Readings were taken again at 1 h post dosing. Dosing volume was 500 μL per 250 g rat.

[3] = system: paclitaxel-induced allodynia; test: Paclitaxel-induced allodynia in Sprague Dawley rats; type: in vivo; details: 10 mg/kg orally, FIG. 3
Protocol: Animals: Male Sprague Dawley rats [200-250 g] (Harlan Laboratories Inc., Livermore, Calif.) were housed three per cage and maintained in a humidity-controlled (40-60%) and temperature-controlled (68-72° F.) facility on a 12 h:12 h light/dark cycle (lights on at 6:30 am) with free access to food (Harlan Teklad, Orange, Calif., Rodent Diet 8604) and water. Rats were allowed one week of habituation to the animal facility before starting treatment.
Induction of Allodynia: Rats were treated intraperitoneally, with 2 mg/kg of paclitaxel (Sigma Aldrich, Saint Louis, Mo.) in 10% Cremophor vehicle (500 μL) on days 0, 2, 4, and 6.
Clinical scoring: Tactile allodynia was tested using von Frey filaments. Briefly, the von Frey assay was performed using the standardized up down method with von Frey filaments, that determine the tactile sensitivity of the paw. By applying the increasingly or decreasingly thicker filaments to the paw in a logarithmic scale of actual force, a linear scale of perceived intensity is determined
Drug treatment: Eight days after the start of paclitaxel dosing, a baseline measurement (von Frey assay) was performed prior to dosing of compounds. […] As a positive control, rats were dosed intraperitoneally with 100 mg/kg gabapentin in water. The dosing volume for oral and peritoneal treatment was 500 μL. […]

[4] = system: streptozotocin-induced painful diabetic peripheral neuropathy; test: Streptozotocin-induced painful diabetic peripheral neuropathy (PDPN) model; type: in vivo, Sprague-Dawley rats; details: diabetic allodynic rats, 10 mg/kg orally in 0.5% methylcellulose, 1, 4 and 6 hours post-dosing, FIG. 17 and FIG. 18
Protocol: Male Sprague-Dawley rats were injected intraperitoneally with 50 mg/kg of streptozotocin (STZ) in sodium citrate buffer. 10% sucrose water was provided ad libitum for the first 48 hours post-STZ followed by regular drinking water. Rats were monitored once weekly for blood glucose levels and body weights. Development of tactile allodynia over time was analyzed using Von Frey filaments and a 50% withdrawal threshold was determined using Dixon's up-down procedure. […] Tactile allodynia was evaluated at 1, 4 and 6 hours post-dosing.

hCB1 = hCB1 (Homo sapiens (Human), UniProt P21554); test: Radioligand binding assay, hCB1; details: NR = No Response
human CB2 receptor = human CB2 receptor (Homo sapiens (Human), UniProt P34972); test: Radioligand binding assay ([3H]CP55,940 / [3H]WIN55,212-2), hCB2; details: HEK293 membranes expressing human CB2, NR = No Response
Protocol: Preparation of Membranes: HEK293 cells stably expressing human CB2 receptor were collected, washed in ice cold PBS, and centrifuged at 48,000×g for 20 min at 4° C. The cell pellet was then collected, resuspended in wash buffer (20 mM HEPES, pH 7.4 and 1 mM EDTA), homogenized on ice using a Brinkman Polytron, and centrifuged at 48,000×g for 20 min at 4° C. The resultant pellet was resuspended in ice cold 20 mM HEPES, pH 7.4, homogenized again on ice, recentrifuged for 20 min at 4° C., and membrane pellets were then stored at −80° C. until needed.
[…] and [^3H]WIN55, 212-2 Radioligand Binding Assays: Radioligand binding assays for human CB2 receptors were performed using two different agonist radioligands, [^3H]CP55,940 and [^3H]WIN55, 212-2 and similar assay conditions. For both assays, nonspecific binding was determined in the presence of 10 μM unlabeled compound. […] Then, 25 μL of BetaScint scintillation cocktail was added to each well, and plates were read in a Packard TopCount scintillation counter.

Compound: CC(C)(CO)NC(=O)c1nn(-c2ccc(F)cc2F)c2c1C[C@H]1C[C@@H]21 [Compound 493, (1aR,5aR)-2-(2,4-Difluoro-phenyl)-1a,2,5,5a-tetrahydro-1H-2,3-diaza-cyclopropa[a]pentalene-4-carboxylic Acid (2-Hydroxy-1,1-dimethyl-ethyl)-amide]
- paw withdrawal threshold (PWT) in comparison with vehicle, therapeutic efficacy [1]: Increase in paw withdrawal threshold (PWT)
- paw withdrawal threshold (PWT) in comparison with vehicle, therapeutic efficacy [2]: increase in paw withdrawal threshold (PWT)
- time of maximum efficacy post-dosing ([3]; time course): 1 h
- paw withdrawal threshold (PWT) in comparison with vehicle and gabapentin, therapeutic efficacy ([3]; von Frey 30, 60 and 180 minutes after dosing): increase in paw withdrawal threshold (PWT)

Compound: CC(C)(NC(=O)c1nn(-c2c[n+]([O-])ccn2)c2c1C[C@@H]1C[C@H]21)C(F)(F)F [Compound 919, (1aS,5aS)-2-(4-Oxy-pyrazin-2-yl)-1a,2,5,5a-tetrahydro-1H-2,3-diaza-cyclopropa[a]pentalene-4-carboxylic acid (2,2,2-trifluoro-1,1-dimethyl-ethyl)-amide]
- analgesic efficacy (tactile allodynia, 50% withdrawal threshold) [4]: robust and sustained analgesic efficacy over 6 hours

Compound: CNC(=O)[C@@H](NC(=O)c1nn(-c2c[n+]([O-])ccn2)c2c1C[C@@H]1C[C@H]21)C(C)(C)C [Compound 701]
- Ki (hCB1): 105 nM

Compound: CC(C)(C)[C@@H](CO)NC(=O)c1nn(-c2c[n+]([O-])ccn2)c2c1C[C@@H]1C[C@H]21 [Compound 699, (1aS,5aS)-2-(4-Oxy-pyrazin-2-yl)-1a,2,5,5a-tetrahydro-1H-2,3-diaza-cyclopropa[a]pentalene-4-carboxylic Acid ((S)-1-Hydroxymethyl-2,2-dimethyl-propyl)-amide]
- analgesic efficacy (tactile allodynia, 50% withdrawal threshold) [4]: robust and sustained analgesic efficacy over 6 hours

Compound: CONC(=O)[C@@H](NC(=O)c1nn(-c2c[n+]([O-])ccn2)c2c1C[C@H]1C[C@@H]21)C(C)(C)C [Compound 755]
- Ki (human CB2 receptor): 3.8 nM
- Ki (hCB1): 1200 nM
